Values joined by “and” are separate entries in the source; they are usually repeats but may differ in a detail not shown here. Equal values may be shown once.
Assays:
Type in all cases: cell-based
GPR139 [1] = biological target: T1, GPR139 (Homo sapiens, UniProt Q6DWJ6); test: Ca2+ mobilization assay, agonist mode, stable GPR139-CHOk1 cell line; conditions: for EC50: GPR139-CHOk1, read-out: EC50, Ca2+ mobilization; for Emax: Supplementary Table 2, normalized to Lundbeck Cmp 1a, mean ± SEM, read-out: Emax (%) Ca2+; for fold improved potency compared to compound 1: Ca2+ mobilization EC50
T1 sequence (Q6DWJ6 1-353): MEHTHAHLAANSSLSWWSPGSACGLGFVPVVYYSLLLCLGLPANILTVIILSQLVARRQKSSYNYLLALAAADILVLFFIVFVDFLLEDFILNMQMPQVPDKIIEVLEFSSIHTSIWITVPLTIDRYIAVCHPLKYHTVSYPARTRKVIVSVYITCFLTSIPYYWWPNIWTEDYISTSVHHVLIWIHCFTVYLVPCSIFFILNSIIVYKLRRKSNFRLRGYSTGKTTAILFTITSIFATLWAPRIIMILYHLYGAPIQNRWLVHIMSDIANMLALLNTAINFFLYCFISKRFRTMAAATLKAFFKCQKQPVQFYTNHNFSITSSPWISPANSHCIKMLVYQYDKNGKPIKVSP
Method in brief: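 Agonist activity of compounds is assessed in stably transfected CHO-K1 cells using the calcium dye Fluo-4 at 37 °C in HEPES-buffered HBSS (pH 7.4). Efficacy is expressed relative to the reference agonist Lundbeck Cmp 1a, set as 100%.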

GPR139 [2] = biological target: T1, GPR139; test: Ca2+ mobilization assay, antagonist mode (EC80 800 nM Lundbeck Cmp 1a after 20 min preincubation), GPR139-CHOk1
Method in brief: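 Antagonist mode: 800 nM (EC80) reference agonist Lundbeck Cmp 1a added following 20 min pre-incubation with 10 µM compound. GPR139-CHOk1 cells, Fluo-4 dye, probenecid-containing HEPES buffer pH 7.4; intracellular Ca2+ measured at 37 °C (ex 485, em 525 nm).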

[3] = biological target: T2, human muscarinic acetylcholine M1 receptor (M1R) (Homo sapiens, UniProt P11229); test: Ca2+ mobilization counter-screen in M1R-CHOk1 cells;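 also: 10 µM test compound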
T2 sequence (P11229 1-460): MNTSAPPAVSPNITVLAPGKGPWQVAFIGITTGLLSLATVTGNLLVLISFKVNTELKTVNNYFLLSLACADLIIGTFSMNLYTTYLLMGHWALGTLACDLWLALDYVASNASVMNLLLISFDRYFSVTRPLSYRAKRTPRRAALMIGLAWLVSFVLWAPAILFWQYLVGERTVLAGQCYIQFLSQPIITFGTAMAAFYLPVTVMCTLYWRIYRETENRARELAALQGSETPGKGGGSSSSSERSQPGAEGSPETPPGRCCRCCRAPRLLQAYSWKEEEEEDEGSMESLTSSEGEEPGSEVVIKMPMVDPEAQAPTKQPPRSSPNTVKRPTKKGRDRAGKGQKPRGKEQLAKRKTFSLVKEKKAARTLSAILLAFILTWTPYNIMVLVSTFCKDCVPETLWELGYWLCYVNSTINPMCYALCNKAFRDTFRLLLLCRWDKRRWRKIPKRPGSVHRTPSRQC
Method in brief: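 Counter-screen used CHO-K1 cells stably carrying human M1R, Fluo-4 AM-loaded (2 µM, 1 h, 37 °C). Calcium signal measured at 485/525 nm after compound addition.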

[4] = log [Compound] M -4.5, replicate experiments
[5] = log [Compound] M -5.0, replicate experiments
[6] = log [Compound] M -5.5, replicate experiments
[7] = log [Compound] M -6.0, replicate experiments
[8] = log [Compound] M -6.5, replicate experiments
[9] = log [Compound] M -7.0, replicate experiments
[10] = log [Compound] M -7.5, replicate experiments
[11] = log [Compound] M -8.0, replicate experiments
[12] = log [Compound] M -8.5, replicate experiments
[13] = log [Compound] M -9.0, replicate experiments
[14] = Agonist mode, individual replicates (Supplementary Figure 4)
[15] = log [Compound] M = -4.5, individual replicate columns
[16] = log [Compound] M = -5.0, individual replicate columns
[17] = log [Compound] M = -5.5, individual replicate columns
[18] = log [Compound] M = -6.0, individual replicate columns
[19] = log [Compound] M = -6.5, individual replicate columns
[20] = log [Compound] M = -7.0, individual replicate columns
[21] = log [Compound] M = -7.5, individual replicate columns
[22] = log [Compound] M = -8.0, individual replicate columns
[23] = log [Compound] M = -8.5, individual replicate columns
[24] = log [Compound] M = -9.0, individual replicate columns
[25] = individual replicates (Supplementary Figure 4)
[26] = individual replicates (Supplementary Figure 5)

SMILES	EC50 (GPR139 [1]) [nM]	Emax (GPR139 [1]) [%]	Ca2+ signal (% of Cmp 1a) (GPR139 [1]; [4])	Ca2+ signal (% of Cmp 1a) (GPR139 [1]; [5])	Ca2+ signal (% of Cmp 1a) (GPR139 [1]; [6])	Ca2+ signal (% of Cmp 1a) (GPR139 [1]; [7])	Ca2+ signal (% of Cmp 1a) (GPR139 [1]; [8])	Ca2+ signal (% of Cmp 1a) (GPR139 [1]; [9])	Ca2+ signal (% of Cmp 1a) (GPR139 [1]; [10])	Ca2+ signal (% of Cmp 1a) (GPR139 [1]; [11])	Ca2+ signal (% of Cmp 1a) (GPR139 [1]; [12])	Ca2+ signal (% of Cmp 1a) (GPR139 [1]; [13])	Ca2+ signal (% of Cmp 1a) (GPR139 [1]; [14])	fold improved potency compared to compound 1 (GPR139 [1]) [fold]	Ca2+ signal (% of Cmp 1a) (GPR139 [1]; [15])	Ca2+ signal (% of Cmp 1a) (GPR139 [1]; [16])	Ca2+ signal (% of Cmp 1a) (GPR139 [1]; [17])	Ca2+ signal (% of Cmp 1a) (GPR139 [1]; [18])	Ca2+ signal (% of Cmp 1a) (GPR139 [1]; [19])	Ca2+ signal (% of Cmp 1a) (GPR139 [1]; [20])	other results
Cc1cc(-c2nc(CC(=O)NC(C)c3ccccc3)no2)sc1C (stereo not shown) [Compound 1, CC(NC(=O)CC1=NOC(=N1)C2=CC(C)=C(C)S2)C=3C=CC=CC3]	160	94 ± 3	84 % of Cmp 1a and 91 % of Cmp 1a and 93 % of Cmp 1a	91 % of Cmp 1a and 83 % of Cmp 1a and 90 % of Cmp 1a	79 % of Cmp 1a	79 % of Cmp 1a and 67 % of Cmp 1a and 70 % of Cmp 1a	57 % of Cmp 1a and 52 % of Cmp 1a and 53 % of Cmp 1a	45 % of Cmp 1a and 26 % of Cmp 1a and 43 % of Cmp 1a	27 % of Cmp 1a and 24 % of Cmp 1a and 16 % of Cmp 1a	10 % of Cmp 1a and 2 % of Cmp 1a and 7.42 % of Cmp 1a	1.62 % of Cmp 1a and 6 % of Cmp 1a and 3.64 % of Cmp 1a	6 % of Cmp 1a and -1.9 % of Cmp 1a and 3.54 % of Cmp 1a									Ca2+ signal (% of Cmp 1a) (GPR139 [1]; 0.1 µM, individual replicates (Supplementary Figure 3)): 36.2 % of Cmp 1a and 58.0 % of Cmp 1a; Ca2+ signal (% of Cmp 1a) (GPR139 [1]; 1 µM, individual replicates (Supplementary Figure 3)): 74.5 % of Cmp 1a and 72.2 % of Cmp 1a; Ca2+ signal (% of Cmp 1a) (GPR139 [1]; 10 µM, individual replicates (Supplementary Figure 3)): 88.7 % of Cmp 1a and 74.0 % of Cmp 1a; Ca2+ signal (% of Cmp 1a) (GPR139 [1]; Agonist mode, individual replicates (Supplementary Figure 1)): 94 % of Cmp 1a (2×) and 99 % of Cmp 1a; Ca2+ signal (% of Cmp 1a) (GPR139 [1]; primary screen, 10 µM compound, agonist mode, three columns = independent experiments): 94 % of Cmp 1a and 99 % of Cmp 1a; Ca2+ signal (% of Cmp 1a) (GPR139 [2]; individual replicates (Supplementary Figure 1)): 6.536 % of Cmp 1a and 8.894 % of Cmp 1a and 14.743 % of Cmp 1a; Ca2+ signal (% of Carbachol) ([3]; individual replicates (Supplementary Figure 2)): -12 % of Carbachol and -15 % of Carbachol
Cc1cscc1-c1nc(CC(=O)NC(C)c2ccccc2)no1 (stereo not shown) [Compound 1.1, CC(C1=CC=CC=C1)NC(CC2=NOC(C3=CSC=C3C)=N2)=O]	50	125 ± 12	130 % of Cmp 1a and 133 % of Cmp 1a and 104 % of Cmp 1a and 91 % of Cmp 1a	136 % of Cmp 1a and 130 % of Cmp 1a and 133 % of Cmp 1a and 83 % of Cmp 1a	124 % of Cmp 1a and 109 % of Cmp 1a and 177 % of Cmp 1a and 86 % of Cmp 1a	113 % of Cmp 1a and 116 % of Cmp 1a and 167 % of Cmp 1a and 85 % of Cmp 1a	103 % of Cmp 1a and 101 % of Cmp 1a and 147 % of Cmp 1a and 66 % of Cmp 1a	80 % of Cmp 1a and 83 % of Cmp 1a and 116 % of Cmp 1a and 48 % of Cmp 1a	60 % of Cmp 1a and 56 % of Cmp 1a and 80 % of Cmp 1a and 40 % of Cmp 1a	36 % of Cmp 1a and 26 % of Cmp 1a and 21 % of Cmp 1a and 24 % of Cmp 1a	21 % of Cmp 1a and 9 % of Cmp 1a and -4 % of Cmp 1a and 18 % of Cmp 1a	19 % of Cmp 1a and 13 % of Cmp 1a and -16 % of Cmp 1a and 5.33 % of Cmp 1a	96 % of Cmp 1a and 101 % of Cmp 1a and 83 % of Cmp 1a	3	130 % of Cmp 1a and 133 % of Cmp 1a and 104 % of Cmp 1a and 91 % of Cmp 1a	136 % of Cmp 1a and 130 % of Cmp 1a and 133 % of Cmp 1a and 83 % of Cmp 1a	124 % of Cmp 1a and 109 % of Cmp 1a and 177 % of Cmp 1a and 86 % of Cmp 1a	113 % of Cmp 1a and 116 % of Cmp 1a and 167 % of Cmp 1a and 85 % of Cmp 1a	103 % of Cmp 1a and 101 % of Cmp 1a and 147 % of Cmp 1a and 66 % of Cmp 1a	80 % of Cmp 1a and 83 % of Cmp 1a and 116 % of Cmp 1a and 48 % of Cmp 1a	Ca2+ signal (% of Cmp 1a) (GPR139 [1]; [21]): 60 % of Cmp 1a and 56 % of Cmp 1a and 80 % of Cmp 1a and 40 % of Cmp 1a; Ca2+ signal (% of Cmp 1a) (GPR139 [1]; [22]): 36 % of Cmp 1a and 26 % of Cmp 1a and 21 % of Cmp 1a and 24 % of Cmp 1a; Ca2+ signal (% of Cmp 1a) (GPR139 [1]; [23]): 21 % of Cmp 1a and 9 % of Cmp 1a and -4 % of Cmp 1a and 18 % of Cmp 1a; Ca2+ signal (% of Cmp 1a) (GPR139 [1]; [24]): 19 % of Cmp 1a and 13 % of Cmp 1a and -16 % of Cmp 1a and 5.33 % of Cmp 1a; Ca2+ signal (% of Cmp 1a) (GPR139 [2]; [25]): -3.33 % of Cmp 1a and 11 % of Cmp 1a and -12 % of Cmp 1a; Ca2+ signal (% of Carbachol) [3, 26]: -5 % of Carbachol and -11 % of Carbachol
COc1ccccc1-c1nc(CC(=O)NC(C)c2ccccc2)no1 (stereo not shown) [Compound 1.2, COC1=C(C2=NC(CC(NC(C3=CC=CC=C3)C)=O)=NO2)C=CC=C1]	50	116 ± 6											84 % of Cmp 1a and 90 % of Cmp 1a and 64 % of Cmp 1a	3	101 % of Cmp 1a and 98 % of Cmp 1a and 89 % of Cmp 1a and 111 % of Cmp 1a and 113 % of Cmp 1a	95 % of Cmp 1a and 88 % of Cmp 1a and 96 % of Cmp 1a and 108 % of Cmp 1a (2×)	86 % of Cmp 1a and 100 % of Cmp 1a and 98 % of Cmp 1a and 101 % of Cmp 1a and 103 % of Cmp 1a	77 % of Cmp 1a (2×) and 83 % of Cmp 1a and 90 % of Cmp 1a and 93 % of Cmp 1a	65 % of Cmp 1a and 81 % of Cmp 1a and 77 % of Cmp 1a and 70 % of Cmp 1a and 86 % of Cmp 1a	63 % of Cmp 1a (2×) and 64 % of Cmp 1a and 53 % of Cmp 1a and 56 % of Cmp 1a	Ca2+ signal (% of Cmp 1a) (GPR139 [1]; [21]): 46 % of Cmp 1a and 38 % of Cmp 1a and 39 % of Cmp 1a and 41 % of Cmp 1a and 52 % of Cmp 1a; Ca2+ signal (% of Cmp 1a) (GPR139 [1]; [22]): 14 % of Cmp 1a and 11 % of Cmp 1a (2×) and 15 % of Cmp 1a and 18 % of Cmp 1a; Ca2+ signal (% of Cmp 1a) (GPR139 [1]; [23]): 3.23 % of Cmp 1a and -2.25 % of Cmp 1a and 2.37 % of Cmp 1a and 7.37 % of Cmp 1a and 3.35 % of Cmp 1a; Ca2+ signal (% of Cmp 1a) (GPR139 [1]; [24]): 5 % of Cmp 1a and -0.0349 % of Cmp 1a and -0.541 % of Cmp 1a and 0.358 % of Cmp 1a and 0.331 % of Cmp 1a; Ca2+ signal (% of Cmp 1a) (GPR139 [2]; [25]): 2 % of Cmp 1a and 4 % of Cmp 1a and 3.33 % of Cmp 1a; Ca2+ signal (% of Carbachol) [3, 26]: -21 % of Carbachol and 0.491 % of Carbachol and -3.3 % of Carbachol

From PMC12775434, “Ultra-large virtual screening unveils potent agonists of the neuromodulatory orphan receptor GPR139” (Nature Communications, 2025)
